Laboratory results: ChEMBL document CHEMBL5674872, “JMJD3 aids in reprogramming of bone marrow progenitor cells to hepatic phenotype through epigenetic activation of hepatic transcription factors” (PLoS One, 2017)
The source made the active and inactive calls.

Assays:
Conditions in all cases: time 14.0 day
[1] = biological target: Lysine-specific demethylase 6B (Mus musculus) (UniProt Q5NCY0); assay: Inhibition of JMJD3 expression in Bl6/J female eGFP-expressing mouse Lin-BM cells assessed as H3K27me3 enrichments level at promoters of GATA4 at 100 nM incubated for 14 days by ChIP-qPCR method; format: cell-based
Lysine-specific demethylase 6B (Mus musculus), sequence (Q5NCY0 whole entry): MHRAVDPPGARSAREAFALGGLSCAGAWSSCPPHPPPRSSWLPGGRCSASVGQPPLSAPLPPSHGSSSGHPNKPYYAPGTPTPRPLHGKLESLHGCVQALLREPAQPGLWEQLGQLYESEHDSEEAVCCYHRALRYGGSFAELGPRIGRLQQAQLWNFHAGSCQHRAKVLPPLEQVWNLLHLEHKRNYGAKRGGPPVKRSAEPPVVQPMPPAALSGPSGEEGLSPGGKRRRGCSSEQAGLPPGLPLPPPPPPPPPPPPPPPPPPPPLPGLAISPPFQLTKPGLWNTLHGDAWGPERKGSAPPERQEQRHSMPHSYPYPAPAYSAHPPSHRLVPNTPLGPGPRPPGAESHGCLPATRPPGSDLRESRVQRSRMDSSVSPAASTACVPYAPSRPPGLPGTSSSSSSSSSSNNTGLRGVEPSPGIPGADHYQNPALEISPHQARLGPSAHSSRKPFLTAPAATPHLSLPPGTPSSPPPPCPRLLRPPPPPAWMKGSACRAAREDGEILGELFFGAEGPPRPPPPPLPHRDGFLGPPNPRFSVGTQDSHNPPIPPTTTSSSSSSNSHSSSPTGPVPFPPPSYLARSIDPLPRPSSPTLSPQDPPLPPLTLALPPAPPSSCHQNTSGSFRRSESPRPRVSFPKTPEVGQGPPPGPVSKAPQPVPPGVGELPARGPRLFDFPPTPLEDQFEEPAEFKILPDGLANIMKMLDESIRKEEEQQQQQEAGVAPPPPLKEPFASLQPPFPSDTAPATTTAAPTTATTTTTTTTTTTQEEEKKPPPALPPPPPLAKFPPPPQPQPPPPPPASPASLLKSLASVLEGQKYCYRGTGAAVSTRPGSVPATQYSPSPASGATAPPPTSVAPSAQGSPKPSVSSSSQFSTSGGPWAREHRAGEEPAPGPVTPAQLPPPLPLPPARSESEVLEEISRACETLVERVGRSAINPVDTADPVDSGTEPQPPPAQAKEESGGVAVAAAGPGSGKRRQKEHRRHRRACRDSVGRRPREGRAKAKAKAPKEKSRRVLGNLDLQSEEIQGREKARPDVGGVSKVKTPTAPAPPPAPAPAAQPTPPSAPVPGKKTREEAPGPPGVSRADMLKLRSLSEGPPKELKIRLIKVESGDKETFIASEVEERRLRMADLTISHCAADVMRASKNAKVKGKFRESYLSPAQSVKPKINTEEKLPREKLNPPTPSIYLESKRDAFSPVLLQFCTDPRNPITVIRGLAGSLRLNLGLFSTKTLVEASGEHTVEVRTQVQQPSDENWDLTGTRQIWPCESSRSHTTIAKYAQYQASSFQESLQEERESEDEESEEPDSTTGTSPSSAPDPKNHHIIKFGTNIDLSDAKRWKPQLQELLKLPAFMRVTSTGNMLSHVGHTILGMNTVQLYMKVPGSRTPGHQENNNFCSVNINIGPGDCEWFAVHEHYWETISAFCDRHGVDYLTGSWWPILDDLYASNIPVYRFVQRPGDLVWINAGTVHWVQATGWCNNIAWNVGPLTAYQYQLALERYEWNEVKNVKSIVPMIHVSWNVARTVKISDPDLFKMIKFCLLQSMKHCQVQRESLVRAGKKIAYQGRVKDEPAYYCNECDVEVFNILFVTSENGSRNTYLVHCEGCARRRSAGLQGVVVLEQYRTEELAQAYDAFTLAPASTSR

[2] = biological target: Lysine-specific demethylase 6B (Mus musculus) (UniProt Q5NCY0); assay: Inhibition of JMJD3 expression in Bl6/J female eGFP-expressing mouse Lin-BM cells assessed as H3K27me3 enrichments level at promoters of HNF1-alpha at 100 nM incubated for 14 days by ChIP-qPCR method; format: cell-based
[3] = biological target: Lysine-specific demethylase 6B (Mus musculus) (UniProt Q5NCY0); assay: Inhibition of JMJD3 expression in Bl6/J female eGFP-expressing mouse Lin-BM cells assessed as H3K27me3 enrichments level at promoters of HNF3-alpha at 100 nM incubated for 14 days by ChIP-qPCR method; format: cell-based
[4] = biological target: Lysine-specific demethylase 6B (Mus musculus) (UniProt Q5NCY0); assay: Inhibition of JMJD3 expression in Bl6/J female eGFP-expressing mouse Lin-BM cells assessed as reduction in hepatic differentiation at 100 nM incubated for 14 days by immuno-cytochemistry analysis; format: cell-based
[5] = biological target: Lysine-specific demethylase 6B (Mus musculus) (UniProt Q5NCY0); assay: Inhibition of JMJD3 expression in Bl6/J female eGFP-expressing mouse Lin-BM cells assessed as H3K27me3 enrichments level at promoters of HNF3-beta at 100 nM incubated for 14 days by ChIP-qPCR method; format: cell-based
Lin-BM = assay: Inhibition of JMJD3 expression in Bl6/J female eGFP-expressing mouse Lin-BM cells at 100 nM incubated for 14 days by immuno-cytochemistry analysis; format: functional, cell-based
[6] = biological target: Lysine-specific demethylase 6B (Mus musculus) (UniProt Q5NCY0); assay: Inhibition of JMJD3 expression in Bl6/J female eGFP-expressing mouse Lin-BM cells assessed as H3K27me3 enrichments level at promoters of CEBP-alpha at 100 nM incubated for 14 days by ChIP-qPCR method; format: cell-based
[7] = biological target: Lysine-specific demethylase 6B (Mus musculus) (UniProt Q5NCY0); assay: Inhibition of JMJD3 expression in Bl6/J female eGFP-expressing mouse Lin-BM cells assessed as H3K27me3 enrichments level at promoters of HNF4-alpha at 100 nM incubated for 14 days by ChIP-qPCR method; format: cell-based
[8] = biological target: Lysine-specific demethylase 6B (Mus musculus) (UniProt Q5NCY0); assay: Inhibition of JMJD3 expression in Bl6/J female eGFP-expressing mouse Lin-BM cells assessed as prevention of loss of H3K27me3 chromatin mark at 100 nM incubated for 14 days by immuno-cytochemical analysis; format: cell-based

Measured: inhibition

CCOC(=O)CCNc1cc(N2CCc3ccccc3CC2)nc(-c2ccccn2)n1
active: all assays above
